Test results as given in patent US20260274814A1, “THIENYL COMPOUNDS FOR THE TREATMENT OF A CENTRAL NERVOUS SYSTEM DISEASE OR DISORDER” (Coreterra Therapeutics, Inc., priority 2023, published 2026).
Counter-ions that a name gives are not always drawn. Like-named read-outs stand apart in the source and are kept apart here.

Test system: mice
Test: Neuropharmacological Assay (SmartCube): automated behavioral signature of compound-treated mice compared with a database of reference drug classes
Assay type: in vivo
Conditions: for MED (minimal effective dose) / minimal effective dose / MED: i.p., that dose is shown; for minimal effective dose: Mus musculus, ip
Summary of the method: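 Mice dosed i.p. 15 min before SmartCube testing, with compound in N-methyl-2-pyrrolidone/polyethylene glycol/propylene glycol. Video-captured behaviour is compared with a reference-drug signature database to give per-class probabilities, reported at 3.0 mg/kg. MED, from doses usually 0.3–10 mg/kg, is the lowest dose giving ≥45% total activity.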

[1] = probability that activity matches this class of agents, 3.0 mg/kg i.p., 15 min before test
[2] = probability that activity matches this class of agents, 3.0 mg/kg i.p., 15 min before test, hydrochloride, 3 mg/kg
[3] = minimal effective dose: dose having 45% or more total activity in SmartCube, if only one dose tested, read-out: MED
[4] = SmartCube class probability, 3.0 mg/kg i.p., 15 min before test
[5] = SmartCube class probability, 3.0 mg/kg i.p., 15 min before test, 3 mg/kg
[6] = SmartCube class probability, 3.0 mg/kg i.p., 15 min before test, hydrochloride, 3 mg/kg
[7] = SmartCube probability class, 3.0 mg/kg dose, i.p. 15 min before the behavioral test
[8] = SmartCube probability class, 3.0 mg/kg dose, i.p. 15 min before the behavioral test, hydrochloride, 3 mg/kg
[9] = dose having 45% or more total activity in SmartCube, if only one dose was tested, hydrochloride
[10] = dose having 45% or more total activity in SmartCube, if only one dose was tested, read-out: MED (minimal effective dose)

Cl.c1cc2c(s1)CC(N1CCOCC1)CC2 (single isomer, unassigned) [Compound 23, 4-(4,5,6,7-tetrahydrobenzo[b]thiophen-6-yl)morpholine hydrochloride]
>10 mpk: MED (minimal effective dose) (dose having 45% or more total activity in SmartCube, if only one dose was tested)
ND (^ <4%): AD [1] | AG [1] | AN [1] | AP [1] | AX [1] | CE [1] | HL [1] | MS [1] | PS [1] | SH [1] | UK [2]

CC1(N2CCCC2)CCc2ccsc2C1 (single isomer, unassigned) [Compound 275, 1-(6-methyl-4,5,6,7-tetrahydrobenzo[b]thiophen-6-yl)pyrrolidine]
++++ (≥74%): PS [5]
ND (^ <4%): AD [4] | AG [4] | AN [4] | AP [4] | CE [4] | HL [4] | MS [4] | SH [4] | UK [4] | AX [5]
3 mg/kg: minimal effective dose [3]

CNC1CCCc2cscc2C1 (single isomer, unassigned) [Compound 170, N-methyl-5,6,7,8-tetrahydro-4H-cyclohepta[c]thiophen-5-amine hydrochloride]
++ (≥24%): AX [6]
+++ (≥49%): AP [6]
ND (^ <4%): AD [4] | AG [4] | AN [4] | CE [4] | HL [4] | MS [4] | PS [4] | SH [4] | UK [6]
1 mpk: MED (minimal effective dose: dose having 45% or more total activity in SmartCube, if only one dose tested, hydrochloride)

CNC1CCc2sc(-c3ccccc3)cc2C1.Cl (single isomer, unassigned) [Compound 257, N-methyl-2-phenyl-4,5,6,7-tetrahydrobenzothiophen-5-amine hydrochloride]
>3 mpk: MED (minimal effective dose: dose having 45% or more total activity in SmartCube, if only one dose tested)
ND (^ <4%): AD [4] | AG [4] | AN [4] | AP [4] | AX [4] | CE [4] | HL [4] | MS [4] | PS [4] | SH [4]
++ (≥24%): UK [6]

CC1(N)CCc2sccc2C1 (single isomer, unassigned) [Compound 281, 5-methyl-4,5,6,7-tetrahydrobenzo[b]thiophen-5-amine hydrochloride]
ND (^ <4%): AG [7] | AN [7] | CE [7] | HL [7] | MS [7] | PS [7] | SH [7] | UK [7]
++++ (≥74%): AD [7]
3 mg/kg: minimal effective dose (minimal effective dose: dose having 45% or more total activity in SmartCube, if only one dose was tested, read-out: MED)
+ (≥4%): AP [8] | AX [8]

CNC1(C)CCc2scc(C(F)(F)F)c2C1 (stereo not drawn) [Compound 190, N, 5-dimethyl-3-(trifluoromethyl)-6,7-dihydro-4H-benzothiophen-5-amine hydrochloride]
+ (≥4%): UK [4]
ND (^ <4%): AD [4] | AG [4] | AN [4] | AP [4] | AX [4] | CE [4] | HL [4] | MS [4] | PS [4] | SH [4]
> 3 mg/kg: minimal effective dose [3]

CNC1COc2cscc2C1 (single isomer, unassigned) [Compound 51, N-methyl-3,4-dihydro-2H-thieno[3,4-b]pyran-3-amine hydrochloride]
ND (^ <4%): AD [1] | AG [1] | AN [1] | CE [1] | HL [1] | MS [1] | PS [1] | SH [1] | AP [2] | AX [2]
>10 mpk: MED (minimal effective dose) [9]
+ (≥4%): UK [1]

Cc1sc2c(c1C)CCC(N)C2 (single isomer, unassigned) [Compound 67, 2,3-dimethyl-4,5,6,7-tetrahydrobenzothiophen-6-amine hydrochloride]
ND (^ <4%): AG [1] | AN [1] | AP [1] | AX [1] | CE [1] | MS [1] | PS [1] | SH [1] | UK [1] | HL [2]
+++ (≥49%): AD [2]
3 mg/kg: minimal effective dose [10]

CC1(N)CCc2sccc2C1 (single isomer, unassigned) [Compound 282, 5-methyl-4,5,6,7-tetrahydrobenzo[b]thiophen-5-amine hydrochloride]
ND (^ <4%): AG [7] | AN [7] | CE [7] | HL [7] | MS [7] | PS [7] | SH [7] | UK [7] | AP [8] | AX [8]
3 mpk: MED (minimal effective dose: dose having 45% or more total activity in SmartCube, if only one dose was tested)
++++ (≥74%): AD [7]

CNC1CCc2cc(C#N)sc2C1 (single isomer, unassigned) [Compound 36, 6-(methylamino)-4,5,6,7-tetrahydrobenzothiophene-2-carbonitrile hydrochloride]
ND (^ <4%): AD [1] | AG [1] | AN [1] | AX [1] | CE [1] | HL [1] | MS [1] | PS [1] | SH [1]
++ (≥24%): UK [2]
3 mg/kg: minimal effective dose [10]
+++ (≥49%): AP [2]

CNC1CCc2csc(Cl)c2C1 (single isomer, unassigned) [Compound 55, 3-chloro-N-methyl-4,5,6,7-tetrahydro-2-benzothiophen-5-amine hydrochloride]
+ (≥4%): AX [2]
++ (≥24%): AP [1] | AD [2]
1 mg/kg: minimal effective dose [10]
ND (^ <4%): AG [1] | CE [1] | HL [1] | MS [1] | PS [1] | SH [1] | UK [1] | AN [2]

Cl.c1cc2c(s1)CC(N1CCOCC1)CC2 (single isomer, unassigned) [Compound 22, 4-(4,5,6,7-tetrahydrobenzo[b]thiophen-6-yl)morpholine hydrochloride]
ND (^ <4%): AD [1] | AG [1] | AN [1] | AP [1] | AX [1] | CE [1] | HL [1] | MS [1] | PS [1] | SH [1]
> 10 mg/kg: minimal effective dose [10]
+ (≥4%): UK [2]

CNC1CCc2c(C)csc2C1 (single isomer, unassigned) [Compound 45, N, 3-dimethyl-4,5,6,7-tetrahydrobenzothiophen-6-amine hydrochloride]
++++ (≥74%): AD [2]
0.1 mpk: MED (minimal effective dose) [9]
ND (^ <4%): AG [1] | AN [1] | AX [1] | CE [1] | HL [1] | MS [1] | PS [1] | SH [1] | UK [1]
+ (≥4%): AP [2]

Cl.c1scc2c1CCC(NC1CC1)C2 (single isomer, unassigned) [Compound 125, N-cyclopropyl-4,5,6,7-tetrahydro-2-benzothiophen-5-amine hydrochloride]
ND (^ <4%): AG [1] | AN [1] | AP [1] | AX [1] | CE [1] | HL [1] | MS [1] | PS [1] | SH [1] | UK [2]
+++ (≥49%): AD [2]
0.3 mpk: MED (minimal effective dose) [9]

Cl.c1cc2c(s1)CC(N1CCCC1)CC2 (single isomer, unassigned) [Compound 18, 1-(4,5,6,7-tetrahydrobenzothiophen-6-yl)pyrrolidine hydrochloride]
++++ (≥74%): AD [2]
+ (≥4%): AP [2]
ND (^ <4%): AG [1] | AN [1] | CE [1] | HL [1] | MS [1] | PS [1] | SH [1] | UK [1] | AX [2]
0.3 mpk: MED (minimal effective dose) [9]
